Experimental data from patent US20250326743A1, “CRYSTAL FORMS OF TRIAZINE DIONE DERIVATIVE AND PREPARATION METHOD THEREFOR” (Jiangsu Hengrui Pharmaceuticals Co., Ltd., priority 2022, published 2025).

Tests used:
[1] = Toxicokinetic evaluation of 14 days of repeated intragastric administration to SD rats; type: in vivo
Method: SD rats were used as the test animals. After intragastric administration of the test compounds to the SD rats, the concentrations of the original forms of the compounds in the plasma and the administration solutions were measured by the LC/MS/MS method at different time points.
Twenty-four SD rats, with an equal number of males and females, were evenly divided into 6 groups, each consisting of 4 rats with an equal number of males and females. The rats were provided by Vital River Laboratory Animal Technology Co., Ltd.
A certain amount of compound MYK-461 was weighed out, and 0.5% MC was added to prepare a colorless clear solution.
Compound MYK-461 was administered at doses of 0.5 mg/kg, 1.5 mg/kg, and 3 mg/kg, each with a volume of 10 mL/kg.
0.2-mL blood samples were collected from the orbit at 0.5 h, 1.0 h, 2.0 h, 4.0 h, 8.0 h, and 24.0 h after administration on day 1, and 0.2-mL blood samples were collected from the orbit before administration and at 0.5 h, 1.0 h, 2.0 h, 4.0 h, 8.0 h, and 24.0 h after administration on day 7 and day 14. The blood samples were placed into EDTA-K2 anticoagulation tubes and centrifuged at 10,000 rpm for 1 min (4° C.), and the plasma was isolated within 1 h and stored at −20° C. before analysis. The procedure starting from the blood collection to the centrifugation was performed under ice-bath conditions. Two hours after administration, food was provided. […]

[2] = Influencing factor stability study (30 days, open flasks); type: physicochemical
[3] = DVS (dynamic vapor sorption) hygroscopicity; type: physicochemical; settings: for hygroscopic weight gain: DVS
Method: DVS refers to dynamic vapor sorption: The measurement was performed using SMS DVS Advantage; at 25° C., the humidity was changed as follows: 50%-95%-0%-95%-50%, in steps of 10% (5% for the last step) (specific humidity ranges are shown in corresponding patterns, and those listed here were used in most cases); the criterion was dm/dt being not greater than 0.002%.

[4] = Long-term/accelerated stability study (6 months); type: physicochemical
myosin ATPase = biological target: T1, myosin ATPase (Bos taurus, UniProt Q9BE39); settings: biological evaluation in Application No. WO2022105852; cited from earlier work
T1 construct: 0.07 μM myosin motor protein SI fragment; purchased Cytoskeleton CS-MYS03 (myosin S1); AD99 (actin)
T1 sequence (Q9BE39 85-778 limits assumed): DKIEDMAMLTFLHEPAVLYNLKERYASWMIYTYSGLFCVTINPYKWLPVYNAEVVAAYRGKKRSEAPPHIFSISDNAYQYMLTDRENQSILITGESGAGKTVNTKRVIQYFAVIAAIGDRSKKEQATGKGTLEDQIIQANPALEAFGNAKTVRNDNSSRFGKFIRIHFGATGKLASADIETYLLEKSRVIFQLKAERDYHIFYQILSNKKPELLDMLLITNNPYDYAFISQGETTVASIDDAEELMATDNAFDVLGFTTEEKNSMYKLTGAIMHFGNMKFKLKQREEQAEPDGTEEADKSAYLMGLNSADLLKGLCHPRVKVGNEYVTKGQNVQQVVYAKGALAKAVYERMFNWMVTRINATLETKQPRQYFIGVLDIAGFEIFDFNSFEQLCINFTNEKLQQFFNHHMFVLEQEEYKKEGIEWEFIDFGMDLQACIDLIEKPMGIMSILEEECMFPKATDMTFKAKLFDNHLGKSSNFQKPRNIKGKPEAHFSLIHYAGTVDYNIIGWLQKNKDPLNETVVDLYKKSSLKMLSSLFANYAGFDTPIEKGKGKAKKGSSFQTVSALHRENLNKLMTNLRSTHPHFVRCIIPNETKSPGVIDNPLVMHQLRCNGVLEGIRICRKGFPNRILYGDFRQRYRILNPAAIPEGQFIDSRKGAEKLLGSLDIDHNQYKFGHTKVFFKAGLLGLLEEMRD
T1 sequence (P85100 whole entry partner, the tested form may be a part): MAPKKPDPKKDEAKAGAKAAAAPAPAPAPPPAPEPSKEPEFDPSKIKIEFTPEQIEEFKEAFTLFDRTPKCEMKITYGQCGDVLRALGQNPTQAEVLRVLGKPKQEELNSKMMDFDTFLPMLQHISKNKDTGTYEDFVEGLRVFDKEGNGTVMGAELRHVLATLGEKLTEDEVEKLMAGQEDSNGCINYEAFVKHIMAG

[5] = Light exposure (4500 Lux), 5 days
[6] = Light exposure (4500 Lux), 10 days
[7] = Light exposure (4500 Lux), 30 days

**Q.** With `CC(C)n1c(=O)cc(N[C@@H](C)c2ccccc2)[nH]c1=O` [MYK-461, reference compound] as the compound, how does the “accumulation in the SD rats” value [1] read?
**A.** caused significant accumulation

**Q.** Which results are given for `Cc1ccc(F)c([C@H](C)Nc2nc(=O)n(C3CCOCC3)c(=O)[nH]2)c1` [crystal form A, (S)-6-((1-(2-fluoro-5-methylphenyl)ethyl)amino)-3-(tetrahydro-2H-pyran-4-yl)-1,3,5-triazine-2,4(1H,3H)-dione]?
**A.** Color and state ([2]; 40° C., 5 days): Off-white solid; Crystal form ([2]; 40° C., 5 days): No change; Purity % ([2]; 40° C., 5 days): 99.7%; Color and state ([2]; 40° C., 10 days): Off-white solid; Crystal form ([2]; 40° C., 10 days): No change; Purity % ([2]; 40° C., 10 days): 99.7%; Color and state ([2]; 40° C., 30 days): Off-white solid; Crystal form ([2]; 40° C., 30 days): No change; Purity % ([2]; 40° C., 30 days): 99.7%; Color and state ([2]; 60° C., 5 days): Off-white solid; Crystal form ([2]; 60° C., 5 days): No change; Purity % ([2]; 60° C., 5 days): 99.7%; Color and state ([2]; 60° C., 10 days): Off-white solid; Crystal form ([2]; 60° C., 10 days): No change; Purity % ([2]; 60° C., 10 days): 99.7%; Color and state ([2]; 60° C., 30 days): Off-white solid; Crystal form ([2]; 60° C., 30 days): No change; Purity % ([2]; 60° C., 30 days): 99.7%; Color and state ([2]; 75% RH, 5 days): Off-white solid; Crystal form ([2]; 75% RH, 5 days): No change; Purity % ([2]; 75% RH, 5 days): 99.7%; Color and state ([2]; 75% RH, 10 days): Off-white solid; Crystal form ([2]; 75% RH, 10 days): No change; Purity % ([2]; 75% RH, 10 days): 99.7%; Color and state ([2]; 75% RH, 30 days): Off-white solid; Crystal form ([2]; 75% RH, 30 days): No change; Purity % ([2]; 75% RH, 30 days): 99.7%; Color and state ([2]; 92.5% RH, 5 days): Off-white solid; Crystal form ([2]; 92.5% RH, 5 days): No change; Purity % ([2]; 92.5% RH, 5 days): 99.7%; Color and state ([2]; 92.5% RH, 10 days): Off-white solid; Crystal form ([2]; 92.5% RH, 10 days): No change; Purity % ([2]; 92.5% RH, 10 days): 99.7%; Color and state ([2]; 92.5% RH, 30 days): Off-white solid; Crystal form ([2]; 92.5% RH, 30 days): No change; Purity % ([2]; 92.5% RH, 30 days): 99.7%; Color and state ([2]; Initial, 0 days): Off-white solid; Purity % ([2]; Initial, 0 days): 99.7%; Color and state [2, 5]: Off-white solid; Crystal form [2, 5]: No change; Purity % [2, 5]: 99.7%; Color and state [2, 6]: Off-white solid; Crystal form [2, 6]: No change; Purity % [2, 6]: 99.7%; Color and state [2, 7]: Off-white solid; Crystal form [2, 7]: No change; Purity % [2, 7]: 99.7%; physical and chemical stability (conclusion) ([2]; light exposure, 40° C. and 60° C., 75% RH and 92.5% RH, 30 days): both good physical stability and good chemical stability; hygroscopic weight gain ([3]; accelerated conditions, 70% RH): about 0.15%; hygroscopic weight gain ([3]; extreme conditions, 90% RH): about 0.24%; hygroscopic weight gain ([3]; normal storage conditions, 60% RH): about 0.12%; crystal form after DVS testing ([3]; after DVS testing): did not change; physical and chemical stability (conclusion) ([4]; 25° C. with 60% RH and 40° C. with 75% RH, 6 months): both good physical stability and good chemical stability; Crystal form ([4]; 25° C./60% RH, 1 month): No change; Purity % ([4]; 25° C./60% RH, 1 month): 99.7%; Crystal form ([4]; 25° C./60% RH, 2 months): No change; Purity % ([4]; 25° C./60% RH, 2 months): 99.7%; Crystal form ([4]; 25° C./60% RH, 3 months): No change; Purity % ([4]; 25° C./60% RH, 3 months): 99.7%; Crystal form ([4]; 25° C./60% RH, 6 months): No change; Purity % ([4]; 25° C./60% RH, 6 months): 99.7%; Crystal form ([4]; 40° C./75% RH, 1 month): No change; Purity % ([4]; 40° C./75% RH, 1 month): 99.7%; Crystal form ([4]; 40° C./75% RH, 2 months): No change; Purity % ([4]; 40° C./75% RH, 2 months): 99.7%; Crystal form ([4]; 40° C./75% RH, 3 months): No change; Purity % ([4]; 40° C./75% RH, 3 months): 99.7%; Crystal form ([4]; 40° C./75% RH, 6 months): No change; Purity % ([4]; 40° C./75% RH, 6 months): 99.8%; Purity % ([4]; Initial): 99.7%

**Q.** Which results are given for `Cc1ccc(F)c([C@H](C)Nc2nc(=O)n(C3CCOCC3)c(=O)[nH]2)c1` [(S)-6-((1-(2-Fluoro-5-methylphenyl)ethyl)amino)-3-(tetrahydro-2H-pyran-4-yl)-1,3,5-triazine-2,4(1H,3H)-dione]?
**A.** inhibitory effect on myosin ATPase (myosin ATPase): very good inhibitory effect; accumulation in the SD rats [1]: did not cause significant accumulation
